Broadly, the IC50 is the concentration that gives 50% inhibition.

Each structure is given as a SMILES string. Structures can show the parent of a compound that is named as a salt.

The test system of the first assay is Aβ1-42 production. The experiment in a line: Cellular assay for inhibition of Aβ1-42 production (H4 APP751 SWE clone 8.20). In kind it is cell-based. The following applies: 19 h, H4 APP751 SWE clone 8.20 cells, 19 h incubation; class symbols; read-out: Activity Rating (Aβ42 cellular IC50). The method in brief: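 Compound-treated cells were incubated 19 h at 37 °C in 5% CO2. Aβ42 in the cell plate was detected overnight at 4 °C with an Aβ42 neoepitope antibody (565, Wallac-labelled, 0.8 ng/well) plus N-terminal antibody 26D6 (APC, 75 ng/well) in 40 mM Tris-HCl pH 7.4, 0.2% BSA. IC50s came from curve fitting.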
Turning to `COc1cc(Nc2nc3c(c(N(C)C)n2)CCC3c2ccc(OC(F)(F)F)cc2)ccc1-n1cnc(Cl)c1` (single isomer, unassigned) [Example 100B, N^2-(4-(4-chloro-1H-imidazol-1-yl)-3-methoxyphenyl)-N^4,N^4-dimethyl-7-(4-(trifluoromethoxy)phenyl)-6,7-dihydro-5H-cyclopenta[d]pyrimidine-2,4-diamine], the IC50 fell in the range of 10 to 100 nM.
Still for that read-out and setting: under `CNc1nc(Nc2ccc(-n3cnc(Cl)c3)c(OC)c2)nc2c1COCC2c1ccc(OC(F)(F)F)cc1` (stereo not shown) [Example 122A, N2-(4-(4-chloro-1H-imidazol-1-yl)-3-methoxyphenyl)-N4-methyl-8-(4-(trifluoromethoxy)phenyl)-7,8-dihydro-5H-pyrano[4,3-d]pyrimidine-2,4-diamine] stands 1.5 to 9.9 nM; under `CNc1nc(Nc2ccc(-n3cnc(Cl)c3)c(OC)c2)nc2c1/C(=N/OC)CC2c1ccccc1` (stereo not shown) [Example 201B, (E)-2-(4-(4-chloro-1H-imidazol-1-yl)-3-methoxyphenylamino)-4-(methylamino)-7-phenyl-6,7-dihydro-5H-cyclopenta[d]pyrimidin-5-one O-methyl oxime], 10 to 100 nM.
Still for that read-out and setting: in the case of `COc1cc(Nc2nc3c(c(N4CC(F)(F)C4)n2)COCC3c2ccc(F)c(F)c2)ccc1-n1cnc(Cl)c1` (racemic) [Example 114, N-(4-(4-chloro-1H-imidazol-1-yl)-3-methoxyphenyl)-4-(3,3-difluoroazetidin-1-yl)-8-(3,4-difluorophenyl)-7,8-dihydro-5H-pyrano[4,3-d]pyrimidin-2-amine, TFA] it was 1.5 to 9.9 nM; in that of `CNc1nc(Nc2ccc(-n3cnc(Cl)c3)c(OC)c2)nc2c1CCC2c1ccc(F)c(F)c1` (single isomer, unassigned) [Example 96A, N^2-(4-(4-chloro-1H-imidazol-1-yl)-3-methoxyphenyl)-7-(3,4-difluorophenyl)-N^4-methyl-6,7-dihydro-5H-cyclopenta[d]pyrimidine-2,4-diamine], 1.5 to 9.9 nM; in that of `COc1cc(Nc2nc3c(c(N4CCC(C)(N)CC4)n2)CCC3c2ccc(F)cc2)ccc1-n1cnc(Cl)c1` (stereo not shown) [Example 25, 4-(4-amino-4-methylpiperidin-1-yl)-N-(4-(4-chloro-1H-imidazol-1-yl)-3-methoxyphenyl)-7-(4-fluorophenyl)-6,7-dihydro-5H-cyclopenta[d]pyrimidin-2-amine], 10 to 100 nM.
With `CNc1nc(Nc2ccc(-n3cnc(C)n3)c(OC)c2)nc2c1CCC2c1ccccc1` (stereo not shown) [Example 1, N2-(3-methoxy-4-(3-methyl-1H-1,2,4-triazol-1-yl)phenyl)-N4-methyl-7-phenyl-6,7-dihydro-5H-cyclopenta[d]pyrimidine-2,4-diamine], the IC50 fell in the range of 1.5 to 9.9 nM.
Regarding `CNc1nc(Nc2ccc(-n3cnc(C)n3)c(OC)c2)nc2c1CCC2c1ccc(F)cc1` (single isomer, unassigned) [Example 44A, 7-(4-fluorophenyl)-N2-(3-methoxy-4-(3-methyl-1H-1,2,4-triazol-1-yl)phenyl)-N4-methyl-6,7-dihydro-5H-cyclopenta[d]pyrimidine-2,4-diamine], the IC50 lay in the range of 1.5 to 9.9 nM.
For the compound `CNc1nc(Nc2ccc(-c3ccnc(C)c3)c(OC)c2)nc2c1CCC2c1ccccc1` (stereo not shown) [Example 261, N2-(3-methoxy-4-(2-methylpyridin-4-yl)phenyl)-N4-methyl-7-phenyl-6,7-dihydro-5H-cyclopenta[d]pyrimidine-2,4-diamine], the IC50 fell in the range of 1.5 to 9.9 nM.
For the compound `COc1cc(Nc2nc3c(c(N4CC[C@@H](F)C4)n2)CCC3c2ccc(F)cc2)ccc1-n1cnc(Cl)c1` (stereo partly drawn) [Example 38, N-(4-(4-chloro-1H-imidazol-1-yl)-3-methoxyphenyl)-7-(4-fluorophenyl)-4-((R)-3-fluoropyrrolidin-1-yl)-6,7-dihydro-5H-cyclopenta[d]pyrimidin-2-amine], the IC50 lay within 10 to 100 nM.

The same assay, now with this note: 19 h, H4 APP751 SWE clone 8.20 cells, 19 h incubation; read-out: Activity Rating (Aβ42 cellular IC50), numeric value.
For `COc1cc(Nc2nc3c(c(N4CCC(=O)C4)n2)CCC3c2ccccc2)ccc1-n1cnc(Cl)c1` (stereo not shown) [Example 206, 1-(2-(4-(4-chloro-1H-imidazol-1-yl)-3-methoxyphenylamino)-7-phenyl-6,7-dihydro-5H-cyclopenta[d]pyrimidin-4-yl)pyrrolidin-3-one], the IC50 was 15 nM.
Same read-out and setting: under `COc1cc(Nc2nc3c(c(N4CC(C)(F)C4)n2)CCC3c2ccc(F)cc2)ccc1-n1cnc(Cl)c1` (stereo not shown) [Example 190, N-(4-(4-chloro-1H-imidazol-1-yl)-3-methoxyphenyl)-4-(3-fluoro-3-methylazetidin-1-yl)-7-(4-fluorophenyl)-6,7-dihydro-5H-cyclopenta[d]pyrimidin-2-amine] stands 37 nM; under `COc1cc(Nc2nc3c(c(N4CC(F)(F)C4)n2)CCC3c2ccc(OC(F)(F)F)cc2)ccc1-n1cnc(Cl)c1` (racemic) [Example 99, N-(4-(4-Chloro-1H-imidazol-1-yl)-3-methoxyphenyl)-4-(3,3-difluoroazetidin-1-yl)-7-(4-(trifluoromethoxy)phenyl)-6,7-dihydro-5H-cyclopenta[d]pyrimidin-2-amine], 19 nM.

Still in this assay, the particulars now being: H4 APP751 SWE clone 8.20 cells, 19 h incubation; class symbols; read-out: Activity Rating (Aβ42 cellular IC50).
With `COc1cc(Nc2nc3c(c(N4CC(C)(O)C4)n2)CCC3c2ccc(F)cc2)ccc1-n1cnc(Cl)c1` (stereo not shown) [Example 189B, 1-(2-(4-(4-chloro-1H-imidazol-1-yl)-3-methoxyphenylamino)-7-(4-fluorophenyl)-6,7-dihydro-5H-cyclopenta[d]pyrimidin-4-yl)-3-methylazetidin-3-ol], the IC50 is 10 to 100 nM.
Same read-out and setting: under `CNc1nc(Nc2ccc(-n3cnc(C)n3)c(OC)c2)nc2c1CCC2c1ccc(F)cc1F` (single isomer, unassigned) [Example 193B, 7-(2,4-difluorophenyl)-N2-(3-methoxy-4-(3-methyl-1H-1,2,4-triazol-1-yl)phenyl)-N4-methyl-6,7-dihydro-5H-cyclopenta[d]pyrimidine-2,4-diamine] stands 10 to 100 nM; under `CNc1nc(Nc2ccc(-n3ncnc3C)c(OC)c2)nc2c1CN(C)CC2c1ccc(F)cc1` (stereo not shown) [Example 199, 8-(4-fluorophenyl)-N2-(3-methoxy-4-(5-methyl-1H-1,2,4-triazol-1-yl)phenyl)-N4,6-dimethyl-5,6,7,8-tetrahydropyrido[4,3-d]pyrimidine-2,4-diamine], 10 to 100 nM.
Consider `COc1cc(Nc2nc3c(c(N(C)C)n2)CCC3c2ccc(F)cc2)ccc1-n1cnc(Cl)c1` (single isomer, unassigned) [Example 46B, N^2-(4-(4-chloro-1H-imidazol-1-yl)-3-methoxyphenyl)-7-(4-fluorophenyl)-N^4,N^4-dimethyl-6,7-dihydro-5H-cyclopenta[d]pyrimidine-2,4-diamine], for which the IC50 lay in the range of 10 to 100 nM.
On the same count and under the same terms, under `CCN(C)c1nc(Nc2ccc(-n3cnc(Cl)c3)c(OC)c2)nc2c1CCCC2c1ccccc1` (single isomer, unassigned) [Example 124A, N^2-(4-(4-Chloro-1H-imidazol-1-yl)-3-methoxyphenyl)-N^4-ethyl-N^4-methyl-8-phenyl-5,6,7,8-tetrahydroquinazoline-2,4-diamine] stands 1.5 to 9.9 nM; under `CCNc1nc(Nc2ccc(-n3cnc(Cl)c3)c(OC)c2)nc2c1COCC2c1ccc(F)cc1` (stereo not shown) [Example 56B, N2-(4-(4-chloro-1H-imidazol-1-yl)-3-methoxyphenyl)-N4-ethyl-8-(4-fluorophenyl)-7,8-dihydro-5H-pyrano[4,3-d]pyrimidine-2,4-diamine], 10 to 100 nM.

(Values after patent publication US8637525B2, “Compounds for the reduction of beta-amyloid production” (Bristol-Myers Squibb Company, priority 2009, dated 2014).)
